Measurements as given in ChEMBL document CHEMBL2021871, “The effects of diketopiperazines from Callyspongia sp. on release of cytokines and chemokines in cultured J774A.1 macrophages” (2012).
Activity calls are given as the source filed them. The calls are words filed in the database; no cut-off is given here.

Columns and labels:
Type in all cases: functional
[1] = tested on: J774.A1; experiment: Induction of TNF-alpha secretion in mouse J774A1 cells at 5 ug/mL after 48 hrs by ELISA relative to control
[2] = tested on: J774.A1; experiment: Induction of IL10 secretion in mouse J774A1 cells at 5 ug/mL after 48 hrs by ELISA relative to control
[3] = tested on: J774.A1; experiment: Induction of IFN-gamma secretion in mouse J774A1 cells at 5 ug/mL after 48 hrs by ELISA relative to control
[4] = tested on: J774.A1; experiment: Induction of MCP-1 secretion in mouse J774A1 cells at 5 ug/mL after 48 hrs by ELISA relative to control
[5] = tested on: J774.A1; experiment: Reduction of TNF-alpha secretion in mouse J774A1 cells at 5 ug/mL after 48 hrs by ELISA relative to control; set-up: scale not given: the % may be the effect or the level left

Compound | Activity [1] | fold change (FC) [2] | fold change (FC) [3] | fold change (FC) [4] | Activity [5] [%] | Activity [2] | fold change (FC) [1]
O=C1NCC(=O)N2CCC[C@@H]12 [CYCLO(PROLYLGLYCYL)] | inactive | 1.29 | 3.5 | 1.86 | – | – | –
CC(C)C[C@@H]1NC(=O)[C@H](Cc2ccc(O)cc2)NC1=O | inactive | – | 1.82 | 2.24 | 88.3 | inactive | –
C[C@@H]1NC(=O)[C@@H]2C[C@@H](O)CN2C1=O | – | 1.65 | 4.49 | 3.09 | – | – | 1.12
O=C1N[C@@H](Cc2ccccc2)C(=O)N2CCC[C@@H]12 | inactive | 1.54 | 1.62 | 2.05 | – | – | –
C[C@@H]1NC(=O)[C@@H]2CCCN2C1=O | – | 1.56 | 1.36 | 1.47 | – | – | –
